How the values were obtained:
[1] = system: production of leukotriene B4 (LTB4), rat abdominal glycogenic infiltration cell; assay: Inhibitory activity against production of leukotriene B4 (LTB4) from rat abdominal infiltration cell; type: cell-based, rat (Fisher male); settings: 10 min, cells 5×10^6/ml, calcium ionophore A-23187 2 μg/ml, 37° C., enzyme immunoassay
Procedure: (§1) Inhibitory activity against the production of leukotriene B4 (LTB4) and thromboxane B2 (TxB2 from rat abdominal infiltration cell
(§2) 10 ml of a 6% (w/v) solution of glycogen (Type II from Oyster, Sigma) in physiological saline was injected into the abdominal cavity of a Fisher male rat having a weight of 150 to 200 g. After 20 to 24 hours, the abdominal exudation cells were recovered therefrom, washed and suspended in the Hanks' balanced salt solution (HBSS) in a concentration of 5×10^6 /ml. This suspension was poured onto a 96-well culture plate (Costar: registered trademark) in which a test drug diluted to a predetermined concentration had been put in an amount of 10 μl/well, in an amount of 100 μl/well. The resulting plate was incubated at 37° C. for 5 minutes. Calcium ionophore A-23187 [Calbiochem (registered trademark)] was added in a final concentration of 2 μg/ml. After the reaction at 37° C. for additional 10 minutes, the plate was put on ice and a BW755C solution was added in a final concentration of 100 μM. The resulting plate was centrifuged at 15000 rpm for 10 minutes. The supernatant was recovered and the amounts of LTB4 and TxB2 in the supernatant were determined by enzyme immunoassay with an EIA kit mfd. by Cayman.

[2] = system: production of thromboxane B2 (TxB2), rat abdominal glycogenic infiltration cell; assay: Inhibitory activity against production of thromboxane B2 (TxB2) from rat abdominal infiltration cell; type: cell-based, rat (Fisher male); settings: 10 min, cells 5×10^6/ml, calcium ionophore A-23187 2 μg/ml, 37° C., enzyme immunoassay
Procedure: as §1, §2
(Thromboxane A2 is very unstable to treat and naturally turns to thromboxane B2 in 10-20 seconds in the human body. Therefore, thromboxane B2 was used in the tests above).

[3] = Repetitive Oral Administration Test for 4 Weeks on Rats; type: in vivo, rat (female Slc:SD); settings: once a day, each of 30 and 100 mg/kg
Procedure: Repetitive Oral Administration Test for 4 Weeks on Rats
30 and 100 mg/kg of the compound obtained in the Example 3 was orally administered to female Slc:SD rats aged 7 weeks (each group consisting of 5 animals) for 4 weeks. This compound was suspended in a 0.5 wt. % aqueous solution of methylcellulose and administered once a day.
During the administration period, the general conditions of the animals were observed and the body weight and feed intake were measured. After the completion of the final administration, hematological examination, hemo-biochemical examination, urinalysis and autopsy were effected and organs were weighed. Further, livers and kidneys were patho-histologicallyexamined under an optical microscope.

[4] = Repetitive Oral Administration Test for 4 Weeks on Dogs; set-up: species or system dog (female beagle); settings: in vivo, concluded after rat and dog tests, read-out: toxicologically non-influential dose
Procedure: Repetitive Oral Administration Test for 4 Weeks on Dogs
30 and 100 mg/kg of the compound obtained in the Example 3 was orally administered to female beagles aged 8 months (each group consisting of 2 animals) for 4 weeks. This compound was triturated with lactose and administered once a day.
During the administration period, the general conditions of the animals were observed and the body weight and feed intake were measured. After the completion of the first, seventh and final administrations, hemo-biochemical examination was effected. After the completion of the seventh and final administrations, further, hematological examination and urinalysis were effected. Furthermore, autopsy was effected and organs were weighed after the final administration. Livers, kidneys and adrenal bodies were patho-histologically examined under an optical microscope.

IC50 [1] [nM]	IC50 [2] [nM]	Compound	change in general conditions, body weight, feed intake, hematology, hemo-biochemistry, urinalysis, autopsy, organ weight, histology [3]	NOAEL at 672 h [4] [mg/kg]
7860	460	COc1c(C)c(O)c(/C=C(\CCCCCc2cccnc2)C(=O)O)c(C)c1O [Ex. 4, (E)-3-(2,5-Dihydroxy-4-methoxy-3,6-dimethylphenyl)-2-[5-(3-pyridyl)pentyl]-2-propenoic acid]		
3160	480	CCCCCCCOc1c(C)c(OC)c(/C=C(\CCCCCc2cccnc2)C(=O)OCC)c(C)c1OC [Ex. 5]		
1390	90	CCCCOc1c(C)c(OC)c(C)c(/C=C(\CCCCCc2cccnc2)C(=O)OCC)c1OC [Ex. 7]		
3160	160	CCCCCCCOc1c(C)c(OC)c(C)c(/C=C(\CCCCCc2cccnc2)C(=O)OCC)c1OC [Ex. 9]		
320	420	CCOC(=O)/C(=C/c1c(C)c(OC)c(OC)c(C)c1OC)CCCc1cccnc1 [Ex. 10]		

Compound	IC50 [1] [nM]	IC50 [2] [nM]	change in general conditions, body weight, feed intake, hematology, hemo-biochemistry, urinalysis, autopsy, organ weight, histology [3]	NOAEL at 672 h [4] [mg/kg]
COC1=C(C)C(=O)C(/C=C(\CCCCCc2cccnc2)C(=O)O)=C(C)C1=O [Ex. 3, (E)-3-(2-Methoxy-3,6-dimethyl-1,4-benzoquinon-5-yl)-2-[5-(3-pyridyl)pentyl]-2-propenoic acid]	1160	50	No change was observed	100
